In patent US9045505B2, “Nitric oxide donors” (University of Otago, priority 2006, dated 2015):

Legend:
[1] = system: HeLa cells; assay: Cell hypoxia experiment, extracellular pO2 by fluorescence quenching oximetry; type: cell-based; conditions: 1% O2, 30 min incubation, compared to untreated controls
Experimental: FIG. 10 is a series of traces and graphs showing the effect of MitoSNAP on respiration in cells. (a-d) Jurkat cells (55×10^6 cells) were incubated in PBS supplemented with 25 mM Hepes pH 7.2 (NaOH), 1 mM sodium pyruvate, 10 μM neocuproine and 100 μM DTPA in the stirred 2.5 ml chamber of an oxygen electrode at 37° C. with 5 μM MitoSNAP (a), MitoNAP (b), SNAP (c) or MitoSNAP and FCCP (500 nM) (d). Where indicated 5 μM OxyHb was added. Traces show typical experiments that were repeated at least three times. Sections of the 02 electrode trace where OxyHb was added for (a) and (b) have been expanded 4-fold in the vertical dimension to facilitate inspection. […] Cellular pO2 values, measured by fluorescence quenching oximetry and expressed as mean±sd, are shown. […]
HeLa cells were seeded and grown to 100% confluence with 15 ml medium/dish on 165 cm^2 dishes. […] Extracellular pO2 measurements were taken by fluorescence quenching oximetry (Oxylite-2000; Oxford Optronix). […]
To evaluate the selective uptake of MitoSNAP by mitochondria within cells, the effect of MitoSNAP on respiration by Jurkat cells, a T lymphocyte cell line that grows in suspension, was measured using an O2 electrode (FIG. 10). […] Then the effects of a further 30 min incubation with MitoSNAP, MitoNAP or the mitochondrial inhibitor myxathiazol on the steady-state extracellular pO2 was assessed by fluorescence quenching oximetry (FIG. 10e).

[2] = system: liver mitochondria; assay: Exposed protein thiols, glutathionylation and GSH/GSSG in liver mitochondria; type: biochemical, rat
Experimental: Mitochondrial incubations were usually in KCl buffer (120 mM KCl, 10 mM HEPES, 1 mM EGTA, 100 μM N,N-bis(2-bis[carboxymethyl]aminoethyl) glycine (DTPA) and 10 μM neocuproine, pH 7.2) with 10 mM succinate and 4 μg/ml rotenone in the dark at 37° C., unless stated otherwise. An electrode selective for the TPP moiety of MitoSNAP and MitoNAP was made and used as described previously (Asin-Cayuela, J., Manas, A. R., James, A. M., Smith, R. A. & Murphy, M. P. Fine-tuning the hydrophobicity of a mitochondria-targeted antioxidant. FEBS Letts. 571, 9-16 (2004)). Respiration rates were measured in a Clark type O2 electrode (Rank Brothers, UK). To measure GSH and GSSG, mitochondria (1 mg protein/ml) were incubated with 0-10 μM MitoSNO1 or MitoNAP for 10 min, pelleted by centrifugation and the GSH and GSSG contents assessed by the recycling assay (Scarlett, J. L., Packer, M. A., Porteous, C. M. & Murphy, M. P. Alterations to glutathione and nicotinamide nucleotides during the mitochondrial permeability transition induced by peroxynitrite. Biochem. Pharmacol. 52, 1047-1055 (1996)). The measurement of exposed mitochondrial protein thiols is described below.
Small molecules were removed by centrifugation through MicroBioSpin Columns (cut off=6 kDa), the eluate was clarified by centrifugation (2 min at 10,000×g) and protein thiols measured in triplicate by mixing 10 μl sample or GSH standard with 160 μl of 200 μM dithionitrobenzoic acid (DTNB) in 80 mM NaPi, 1 mM EDTA, pH 8 in a 96 well plate and absorbance at 412 nm was measured after 30 min at room temperature and the thiol content determined from the GSH standard curve. The protein concentration was measured in parallel by the bicinchonininc assay using BSA as a standard.
The interaction of MitoSNAP with mitochondrial thiol proteins is likely to initiate a dynamic process that may lead to other protein thiol modifications, such as disulfide formation, glutathionylation, sulfenylation or sulfenylamide formation, in addition to persistent S-nitrosation. To assess these, the content of reactive, solvent-exposed thiols on native liver mitochondrial proteins was measured. […] This is consistent with the finding that the maximum extent of mitochondrial protein S-nitrosation by 5 μM MitoSNAP (˜500 pmol SNO/mg protein; FIG. 11) was only ˜1% of the total number of protein thiols available. A small amount of MitoSNAP binding to mitochondrial thiol proteins through the formation of mixed disulfides was detectable by immunoblotting.

Compound: CC(=O)NC(C(=O)NCCCCC[P+](c1ccccc1)(c1ccccc1)c1ccccc1)C(C)(C)SN=O.CS(=O)(=O)[O-] (stereo not shown) [MitoSNAP, [5-(2-acetylamino-3-methyl-3-nitrosothio-butyrylamino)-penty1]-triphenylphosphonium methanesulfonate]
- effect on steady-state extracellular pO2 during hypoxia [1]: increased extracellular O2
- reactive, solvent-exposed thiols on native liver mitochondrial proteins ([2]; 5 μM, 5 min, mean±sem, n=3): 46.7±9.6 nmol thiols/mg protein
- GSH and GSSG content of mitochondria ([2]; 10 μM, 10 min): no loss of GSH or accumulation of GSSG
- protein-glutathione mixed disulfides (glutathionylation) ([2]; mitochondria, MitoSNAP 5 μM): not detectable
